Data on 2 molecules can be found in US20210290676A1, “IMPROVING THE EFFICACY AND SAFETY OF ADOPTIVE CELLULAR THERAPIES” (University of Southern California, priority 2018, published 2021).

What all share (assay type): cell-based, human
In test [1] the test system is Pgp+ (DiOC2(3)-dye effluxing cells) and CD62L+ T cells. Nature of the test: DiOC2(3) dye efflux plus CD62L-APC staining, flow cytometry of inhibitor-treated T cells. Conditions: treatment for 13 days, IL2 + CD3 and CD28 antibodies. As for the experimental part:
(§1) The use of P-glycoprotein (Pgp)-mediated efflux of DiOC2(3) to isolate stem like T cells for adoptive cellular therapy has been described in application no. […] In the following examples, DiOC2(3) staining was used to study the effect of different inhibitors on generation of stem like T cells.
(§2) DAY 0: Blood was obtained from unidentified donor. After RBC lysis, PBMC were collected using Ficoll-Hypaque separation. […] T cells were cultured in three different conditions: • 1. XVIVO 15 medium (Lonza) with IL2 50 IU/ml, CD3 antibody (30 ng/ml) and CD28 antibody (30 ng/ml). • 2. XVIVO 15 medium (Lonza) with CD3 antibody (30 ng/ml) and CD28 antibody (30 ng/ml). • 3. XVIVO 15 medium (Lonza) with IL2 50 IU/ml DAY 1: Cells were plated in a 6-well plate at a density of 1 million cells in 2 ml/of media (as described above) and treated with different inhibitors
(§3) The cell growth medium was changed in 6-well plates and fresh drugs were added at same concentration for one more week.
(§4) […] (DAY 11): Culture medium was changed and fresh drugs were added in 6-well plates.
(§5) Subsequently, cells were washed with RPMI medium and dye was effluxed at 37° C. for 90 min. Cells were washed with […], stained with CD62L-APC (5 μl/100 μl/sample) at 4° C. for 1 h, washed twice with PBS+1% FBS and analyzed on flow cytometer to check if these drugs treatment leads to increase in Pgp+/CD62L positive population.
(§6) Day 0: Blood was obtained from unidentified donor. After RBC lysis, PBMC were collected using Ficoll-Hypaque separation. 200 million T cells were isolated from PBMCs using CD3 microbeads. T cells were cultured overnight in XVIVO 15 medium (Lonza) with IL2 (50 IU/ml), 30 ng/ml of CD3 and CD28 antibodies
(§7) Day 1: Cells were plated in 24-well plates at a density of 0.3 million cells/ml in each well and treated with different drugs.
(§8) On day 7, culture medium was replaced with fresh medium with fresh drugs.
(§9) On day 13, culture medium was replaced with fresh medium and fresh drugs. Half of the cells were transferred to 6-well plates.
(§10) Day 14: An aliquot of cells with all the treatments listed above (for 13 days) was used to stain the cells with DiOC2(3) (60 ng/ml in RPMI medium) at 4° C. for 40 min, washed with RPMI medium, DiOC2(3) dye was effluxed at 37° C. for 90 min, washed with PBS+1% FBS, stained with CD62L-APC antibody. CD62L is a marker for resting T cells. (5 μl/100 μl/sample) at 4° C. for 1 h, washed twice with PBS+1% FBS and analyzed on flow cytometer to check if these drugs are affecting the dye-effluxing or Pgp+ (i.e., DiOC2(3)-dull) T-cell population.
In general terms: Flow cytometry measures light scatter and fluorescence of single cells or particles in a stream.

Test [2] has as its system Pgp+ (DiOC2(3)-dye effluxing) T cells. Nature of the test: DiOC2(3) dye efflux flow cytometry of inhibitor-treated T cells. Conditions: treatment for 13 days, IL2 + CD3 and CD28 antibodies. As for the experimental part: as §1, §2, §3, §4, §5, §6, §7, §8, §9, §10
Test [3] relates to CD8+CD45RA+CCR7+CD62L+ T cells. Nature of the test: Flow cytometry for CD8, CD45RA, CCR7 and CD62L on inhibitor-treated T cells. Conditions: cells cultured for 14 days. As for the experimental part: as §2
(§11) A second aliquot of the cells cultured for 13 days with all the treatments listed above (1-21) was washed with PBS+1% FBS, stained with CD8-PerCP, CD45RA-FITC, CCR7-PE and CD62L-APC ([…] for each of 4 antibodies) at 4° C. for 1 h, washed twice with […] and analyzed on flow cytometer to check if these drugs are enriching T stem cells showing surface expression of CD8+CD45RA+CCR7+CD62L+.
as §6, §7, §8, §9
(§12) A second aliquot of the cells cultured for 14 days with all the treatments listed above was washed with PBS+1% FBS, stained with CD8-PerCP, CD45RA-FITC, CCR7-PE and CD62L-APC (5 ul/100 ul/sample for each of 4 antibodies) at 4° C. for 1 h, washed twice with PBS+1% FBS and analyzed on flow cytometer to check if these drugs are enriching for T cells showing surface expression of CD8+CD45RA+CCR7+CD62L+.

The test system of test [4] is CD45RA+CCR7+CD62L+ T cells. Nature of the test: Flow cytometry for CD45RA, CCR7 and CD62L on inhibitor-treated T cells (all T cells). Conditions: cells cultured for 14 days. As for the experimental part: as §2, §11, §6, §7, §8, §9, §12

With `O=C1CN=C(c2ccc[nH]2)c2cc(Cl)ccc2N1` [R05335], the “p5: double +ve pgp+ and CD62L-APC+ from Live cells” value in test [1] (100 nM) was found to be 2.55; in test [1] (500 nM), 2.3. Besides, the “p2: pgp+ from Live cells” value was found to be 14.71 in test [2] (100 nM) and 16.22 in test [2] (500 nM). The “GATE P4 CD8(PerCP)+, CD45RA(FITC)+, CCR7 (PE)+, CD62L(APC)” value in test [3] (500 nM) amounted to 79.9%. In addition, in test [4] (500 nM), the “GATE P6 CD45RA(FITC)+, CCR7 (PE)+, CD62L(APC)” value is recorded as 69.95%.
For `CCN(c1cc(-c2ccc(CN3CCOCC3)cc2)cc(C(=O)NCc2c(C)cc(C)[nH]c2=O)c1C)C1CCOCC1` [TAZE], the “p5: double +ve pgp+ and CD62L-APC+ from Live cells” value in test [1] (100 nM) came to 14.5. Further, the “p2: pgp+ from Live cells” value in test [2] (100 nM) amounted to 42.9. In test [3] (100 nM), the “GATE P4 CD8(PerCP)+, CD45RA(FITC)+, CCR7 (PE)+, CD62L(APC)” value was found to be 59.72%. In test [4] (100 nM), the “GATE P6 CD45RA(FITC)+, CCR7 (PE)+, CD62L(APC)” value stood at 52.24%.
